These results are taken from ChEMBL document CHEMBL1201862, “PubChem BioAssay data set” (2004).

Some test systems named below: DMS-273; SNB-78; M19-MEL; DLD-1; HOP-18; DMS-114; LXFL 529; XF498; RXF 631.
What all share (assay): NCI anticancer screen, dose series, 48 h

The structures appear in SMILES notation.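 Following 48 hours of exposure in 96-well plates, responses at five concentrations were used to interpolate endpoints linearly. The concentration for 50% growth inhibition is given as GI50.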 Activity calls are given as the source filed them. Cut-off read from the data, not from the text of the source: active = GI50 up to about 1.1 µM and inactive = higher.

For `CSCSCC(CO)NC(=O)/C=C/c1c(C)nc(O)nc1O` (stereo not given), the GI50 was > 100 µM (inactive) in the test on DMS-273; > 100 µM (inactive) in the test on SNB-78; 84.3 µM (inactive) in the test with M19-MEL; > 100 µM (inactive) with DLD-1; > 100 µM (inactive) in the test on HOP-18; 64.9 µM (inactive) with DMS-114. In the test with LXFL 529, the GI50 is > 100 µM (inactive).
As for `O=C1C(CO)=C(CO)C(=O)c2c(O)ccc(O)c21`, the GI50 in the test with DMS-273 is 0.369 µM (active); in the test on SNB-78, 1.7 µM (inactive); in the test with M19-MEL, 0.0719 µM (active); with DLD-1, 0.0653 µM (active); with XF498, 0.247 µM (active); with DMS-114 it was 0.24 µM (active). Moreover, the GI50 with LXFL 529 was 0.177 µM (active); in the test on RXF 631, 1.26 µM (inactive).
`COc1cc(C(=O)NC2CCc3cc(OC)c(OC)c(OC)c3-c3ccc(OC)c(=O)cc32)cc(OC)c1OC` (stereo not given): the GI50 with DMS-273 was 0.0316 µM (active); in the test with SNB-78 it was 0.0232 µM (active); in the test with M19-MEL it was 0.0577 µM (active); in the test on DLD-1 it was 0.265 µM (active); in the test with HOP-18, > 29.4 µM (inactive); in the test with XF498 it was 0.15 µM (active). The GI50 with DMS-114 was 0.0233 µM (active); in the test with LXFL 529 it was 0.0272 µM (active).
For the molecule `C/C=C(/I)CBr`, the GI50 with SNB-78 was 29 µM (inactive); in the test with M19-MEL, 14.5 µM (inactive); with DLD-1 it was 15.4 µM (inactive); in the test with XF498, 13.5 µM (inactive); in the test on DMS-114, 12.6 µM (inactive); with LXFL 529 it was 13.7 µM (inactive). In the test with RXF 631, the GI50 was 15.3 µM (inactive).
For the molecule `Cc1c(C(=O)NCCO)[n+]([O-])c2cc(Cl)ccc2[n+]1[O-]`, the GI50 in the test on DMS-273, with SNB-78, in the test with M19-MEL, in the test on DLD-1, in the test on HOP-18 and in the test with DMS-114 was > 100 µM (inactive) each time. Besides, in the test with LXFL 529, the GI50 is > 100 µM (inactive).
With `CC(=O)OC1=CC(n2cc(F)c(=O)[nH]c2=O)OC(C)C1=O` (stereo not given), the GI50 with DMS-273 was 41.5 µM (inactive); with SNB-78 it was > 100 µM (inactive); with M19-MEL it was 90.8 µM (inactive); with DLD-1, 97.3 µM (inactive); with HOP-18, > 100 µM (inactive); in the test on XF498 it was > 100 µM (inactive). In addition, the values for the GI50 in the test with DMS-114 and in the test with LXFL 529 were 99.3 µM (inactive) and > 100 µM (inactive), respectively.
As to `COc1ccc(C(=O)C(c2ccc(OC)cc2)C2(O)C(=O)Nc3c(Cl)cc(Cl)cc32)cc1` (stereo not given), the GI50 in the test with DMS-273 was 16.3 µM (inactive); in the test with SNB-78, 18.3 µM (inactive); in the test on DLD-1, 19.2 µM (inactive); in the test with HOP-18, 20.1 µM (inactive); in the test on XF498, 22.4 µM (inactive); in the test with DMS-114, 18.4 µM (inactive). For the same molecule, the GI50 with LXFL 529 is 15 µM (inactive).
`CC1NOC(=O)C1/N=N/c1cccc(Cl)c1` (stereo not given): the GI50 was 48.1 µM (inactive) in the test with DMS-273; 36.6 µM (inactive) in the test on SNB-78; 30.3 µM (inactive) in the test with M19-MEL; 34.6 µM (inactive) with DLD-1; 26.1 µM (inactive) in the test on HOP-18; 22.3 µM (inactive) in the test on XF498. Besides, the GI50 in the test on DMS-114 is 22.4 µM (inactive); in the test with LXFL 529 it was 27.9 µM (inactive).
On to `O=C(c1ccc(Cl)cc1)c1ccc(OCC(=O)N2CCN(c3ccccc3)CC2)cc1`, for which the GI50 was 56.4 µM (inactive) in the test on SNB-78; > 100 µM (inactive) with M19-MEL; > 100 µM (inactive) in the test with DLD-1; > 100 µM (inactive) in the test with HOP-18; > 100 µM (inactive) with XF498; 33.2 µM (inactive) in the test with DMS-114. Besides, the GI50 with LXFL 529 is 52.7 µM (inactive).
For the molecule `NS(=O)(=O)c1cc2c(cc1Cl)NC(C(=O)c1cc(=O)c3ccc(O)cc3o1)=NS2(=O)=O`, the GI50 with DMS-273, in the test on SNB-78, in the test on M19-MEL, in the test with DLD-1, in the test with HOP-18 and with XF498 was > 100 µM (inactive) in each case. In the test on DMS-114, the GI50 was > 100 µM (inactive).
Take `CCOC(=O)c1ncn2c1[nH]c(=O)c1ccccc12`: the GI50 in the test on DMS-273, with SNB-78, in the test on M19-MEL, in the test on XF498, with DMS-114 and in the test with LXFL 529 was > 100 µM (inactive) in each case.
Take `OC(c1ccccn1)C1CNc2ccccc21` (stereo not given): the GI50 with DMS-273, in the test with SNB-78, with M19-MEL, with DLD-1, with XF498 and in the test on DMS-114 was > 100 µM (inactive) each time. The GI50 in the test with LXFL 529 is > 100 µM (inactive).
`CN(C)c1ccc(/C=C2\C[N+](C)(C)C/C(=C\c3ccc(N(C)C)cc3)C2=O)cc1`: the GI50 in the test on DMS-273 was 5.25 µM (inactive); in the test with SNB-78, > 49.8 µM (inactive); in the test with M19-MEL, 13.4 µM (inactive); in the test on DLD-1 it was 35.9 µM (inactive); in the test with HOP-18, 37.1 µM (inactive); in the test with XF498, > 10 µM (inactive). The GI50 with DMS-114 is 7.53 µM (inactive); with LXFL 529 it was 7.55 µM (inactive).
Turning to `O=C1C=C(c2c(O)ccc3ccccc23)c2cc(O)ccc2C1=O`, the GI50 with DMS-273 is 15.3 µM (inactive); in the test with SNB-78, 19.2 µM (inactive); with M19-MEL it was 3.33 µM (inactive); in the test on DLD-1, 16.9 µM (inactive); in the test with HOP-18, 26.1 µM (inactive); in the test on XF498, 11.1 µM (inactive). For the same molecule, the GI50 in the test with DMS-114 is 6.14 µM (inactive); with LXFL 529 it was 6.4 µM (inactive).
Turning to `COc1ccc(/C=C/C(=O)c2c(-c3ccccc3)nn(C)c(=O)c2N2CC2C)cc1` (stereo not given), the GI50 in the test on DMS-273 is 21 µM (inactive); with SNB-78, 30.1 µM (inactive); with M19-MEL, 49.9 µM (inactive); in the test with DLD-1, 26.1 µM (inactive); with HOP-18 it was 27.5 µM (inactive); in the test on DMS-114, 24.7 µM (inactive). Moreover, the GI50 in the test with LXFL 529 was 25.1 µM (inactive).
Regarding `CC1=C(C(=O)Nc2ccccc2)C(c2ccc([N+](=O)[O-])cc2)C(C(=O)Nc2ccccc2)=C(C)N1`, the GI50 in the test with DMS-273 was 24.4 µM (inactive); in the test with SNB-78, 33.8 µM (inactive); in the test with M19-MEL, 16.6 µM (inactive); in the test on DLD-1, 26.6 µM (inactive); in the test on XF498, 15.1 µM (inactive); in the test with DMS-114, 20.7 µM (inactive). The GI50 with LXFL 529 is 17.4 µM (inactive); with RXF 631 it was 21.2 µM (inactive).
Consider `CS/C(=N\C(=S)Nc1ccccc1)Nc1ccccc1`, for which the GI50 with DMS-273 is > 10 µM (inactive); with SNB-78, 40.3 µM (inactive); in the test with M19-MEL, 11 µM (inactive); with DMS-114 it was 0.743 µM (active).
With `CCN(CC)CC(C(=O)Nc1c(C)cccc1C)/C(C)=N/NC(N)=S` (stereo not given), the GI50 in the test on DMS-273, with SNB-78, in the test with M19-MEL, in the test on DLD-1, in the test on XF498 and in the test on DMS-114 was > 100 µM (inactive) in each case. For the same molecule, the GI50 with LXFL 529 and with RXF 631 was > 100 µM (inactive) throughout.
Turning to `CCCCCCCC(=O)NCC(O)CNC(=O)CCCCCCC`, the GI50 with DMS-273, in the test on SNB-78, in the test with M19-MEL, with DLD-1, in the test on HOP-18 and in the test with XF498 was > 100 µM (inactive) each time. Also, the GI50 in the test with DMS-114 and in the test with LXFL 529 was > 100 µM (inactive) each time.
Regarding `Cc1nc2c(n1CC(C)C)C(=O)c1ccccc1C2=O`, the GI50 in the test with DMS-273 was 26.8 µM (inactive); with SNB-78, 61.9 µM (inactive); in the test on M19-MEL, 15.7 µM (inactive); in the test with DLD-1, 36.6 µM (inactive); with XF498, 33.3 µM (inactive); with LXFL 529, 42.6 µM (inactive).
Regarding `C=CCOC(C)n1c(C)cc(=O)n(C(C)OCC=C)c1=O` (stereo not given), the GI50 in the test with DMS-273, in the test with SNB-78, with M19-MEL, in the test with DLD-1, with HOP-18 and in the test with DMS-114 was > 100 µM (inactive) each time. For the same molecule, the GI50 with LXFL 529 is > 100 µM (inactive).
Consider `Nc1nc(N)c(N=O)c(Nc2ccc(Br)cc2)n1`, for which the GI50 is 17.5 µM (inactive) in the test with DMS-273; 41.5 µM (inactive) with SNB-78; 30.5 µM (inactive) in the test on M19-MEL; 10.4 µM (inactive) with DLD-1; 11.2 µM (inactive) in the test with HOP-18; 18.8 µM (inactive) in the test on XF498. In addition, the results for the GI50 with DMS-114 and in the test with LXFL 529 were 21.8 µM (inactive) and 15.3 µM (inactive), respectively.
As to `O=C(O)CCC(O)=C1S(=O)(=O)OCCOS1(=O)=O`, the GI50 in the test with DMS-273, in the test on SNB-78, with M19-MEL, in the test on DLD-1, in the test on HOP-18 and with DMS-114 was > 100 µM (inactive) each time. Also, in the test on LXFL 529, the GI50 was > 100 µM (inactive).
In the case of `COc1ccc(NS(=O)(=O)c2ccc(/N=C3\C=C(Nc4ccc(S(=O)(=O)Nc5ccc(OC)nn5)cc4)C(=O)c4ccccc43)cc2)nn1`, the GI50 is 14.9 µM (inactive) in the test on DMS-273; 57 µM (inactive) with SNB-78; 16.9 µM (inactive) in the test with M19-MEL; 18.5 µM (inactive) with DLD-1; 16 µM (inactive) in the test with HOP-18; 22.6 µM (inactive) with XF498. Moreover, the GI50 with DMS-114 is 26.5 µM (inactive); in the test on LXFL 529, 22.2 µM (inactive).
As to `O=C1OC(=O)C2C3CCC(O3)C12` (stereo not given), the GI50 in the test with DMS-273, in the test on SNB-78, in the test with M19-MEL, with DLD-1, in the test with HOP-18 and in the test on XF498 was > 100 µM (inactive) in each case. Also, the GI50 in the test on DMS-114 and in the test on LXFL 529 was > 100 µM (inactive) each time.
As to `COc1cc(/C=C\c2ccc(OC(C)=O)cc2)cc(OC)c1OC`, the GI50 in the test with DMS-273 was 0.887 µM (active); in the test on SNB-78 it was 5.62 µM (inactive); in the test with M19-MEL, 6.4 µM (inactive); with DLD-1 it was 3.99 µM (inactive); with XF498, 3.39 µM (inactive); in the test with DMS-114, 3.33 µM (inactive). Moreover, the GI50 in the test with LXFL 529 was 6.1 µM (inactive); in the test with RXF 631, 17.7 µM (inactive).
